{"source": "patent US6455250B1", "about": "“Endonuclease compositions and methods of use” (The Regents of the University of California, priority 1997, dated 2002)", "molecules": {"B1": {"name": "purified bovine Endo-SR (Fraction V, from bovine spleen nuclear extract) (enzyme, UniProt P56541 20-365, looked up)", "chain": "LTCYGDSGQPVDWFVVYKLPAHTGSGDATQNGLRYKYFDEHSEDWSDGVGFINSTTGAVGRSLLPLYRNNNSQLAFVLYNDQPPKSSESKDSSSRGHTKGVLLLDQEGGFWLIHSVPNFPPRASSAVYSWPPGAQKYGQTLICVSFPLTQFLDISKQLTYTYPLVYDHRLEGDFAQKFPYLEEVVKGHHVRQGPWNSSVTLTSKKGATFQSFAKFGNFGDDLYSGWLSEALGSTLQVQFWQRSSGILPSNCSGAQHVFDVTQTAFPGPAGPAFNATEDHSKWCVTPKGPWACVGDMNRNQREEHRGGGTLCAQMLWKAFKPLVKAWEPCEKKSRAYSLGSPAGLWT", "notes": "Native enzyme purified to homogeneity; also called bovine Endo-SR nuclease; Mr ~32 000 protein species"}}, "key": {"Endo-SR": {"molecular_target": "T1, Endo-SR (Mus musculus, UniProt P56542)", "T1 construct": "All nuclease assays were performed with Fraction IV enzyme (see below) as the source for Endo-SR activity, unless otherwise specified; endogenous in cells; host or cells: murine 38B9 pre-B cell line, nuclear extract, chromatographic Fraction IV (BioRex 70, 300 mM NaCl step)", "T1 sequence (P56542 20-353)": "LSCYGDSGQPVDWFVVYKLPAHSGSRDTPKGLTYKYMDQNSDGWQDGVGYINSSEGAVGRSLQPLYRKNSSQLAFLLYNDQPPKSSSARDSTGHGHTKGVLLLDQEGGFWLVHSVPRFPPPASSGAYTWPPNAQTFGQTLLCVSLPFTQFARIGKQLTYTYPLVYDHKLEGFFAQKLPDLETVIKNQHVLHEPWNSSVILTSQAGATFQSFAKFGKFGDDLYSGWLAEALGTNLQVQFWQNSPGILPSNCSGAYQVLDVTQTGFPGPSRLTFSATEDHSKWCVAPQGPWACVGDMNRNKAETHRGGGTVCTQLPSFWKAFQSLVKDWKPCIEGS", "experiment": "Effect of M^2+ species and EDTA on murine Endo-SR activity (Example 1, FIG. 3B)", "type": "biochemical", "method": "FIG. 3B. Effect of M^2+ species on Endo-SR activity. Nuclease assays were performed as previously described but with varied concentrations of different M^2+ species (or EDTA) replacing the standard (5 mM Mg^2+) assay condition. Activity values shown are expressed as percentages of an activity detected in a control assay (0 μM) containing no added M^2+ species.\nEndonuclease assays were conducted in 10 μl reaction volumes containing 10 mM bis-Tris (pH6.5), 5 mM MgCl2, ˜250 pmoles of an end-labeled (^32P) DNA substrate, 1 μg of calf-thymus DNA, and 1 μl of an active Endo-SR fraction. […] All nuclease assays were performed with Fraction IV enzyme (see below) as the source for Endo-SR activity, unless otherwise specified. Nuclease assays performed for biochemical analysis of Endo-SR activity were conducted as described except for the addition or substitution of the test material. Reactions were incubated at 37° C. for 30 min, then mixed with an equal volume of formamide dye (Ausubel et al., 1987) and heated to 95° C. for 5 min prior to electrophoresis on an appropriate percentage (8-15%) sequencing gel. After electrophoresis, these gels were transferred to Whatman paper, dried, and exposed to film for 12-48 h. All detected cleavage products were compared to adjacent Maxam-Gilbert sequencing reactions, and adjusted one nucleotide 3′ to compensate for the removed base (Ausubel et al., 1987). After autoradiographic analysis, endonuclease activity was assayed by scintillation counting of intact substrate and specific cleavage products excised from the dried gel. End-labeled DNA substrates were prepared according to previously described methods (Hope et al., 1986)."}, "bovine Endo-SR": {"molecular_target": "T2, bovine Endo-SR (Bos taurus, UniProt P56541)", "T2 construct": "Nuclear extracts for enzyme purification were generated from bovine spleen; from tissue; host or cells: bovine spleen nuclear extract, Fraction V (Superose-12)", "T2 sequence (P56541 20-365)": "B1 chain", "experiment": "Effect of M^2+ cofactors and EDTA on bovine Endo-SR activity (FIG. 2B)", "type": "biochemical", "settings": "≦50 μM", "method": "(§1) FIG. 2B. Effect of various common divalent metal cation (M^2+) species on Endo-SR activity. Nuclease reaction buffer used in these assays contained no Mg^2+, and nuclease reactions were adjusted to various M or EDTA concentrations. Nuclease assays performed with supplemental M^2+ or EDTA were pre-incubated for 30 min on ice prior to addition of the DNA substrate. Specific endonuclease activity values detected in these assays were normalized against nuclease reactions, which contained no supplemental M^2+ or EDTA, and expressed as percentages of this reaction activity. Bovine and murine enzyme activities are represented by open and closed symbols, respectively.\n(§2) Endo-SR activity was assayed in 10 μl reactions containing 50 mM sodium acetate (pH 5.5), ˜150 mM NaCl, 0.5 mM MgCl2, ˜250 fmoles of end-labeled DNA substrate (see below), 1 μg sheared salmon sperm DNA, and 1 μl of a diluted Endo-SR fraction. All reactions performed with bovine Endo-SR used Fraction V material (Table 2). Murine Endo-SR used in these assays was purified essentially as previously described (Lyon et al., 1996). All nuclease assays were incubated at 37° C. for 30 min, then mixed with 10 μl of formamide dye and denatured at 95° C. for 5 min prior to size-fractionation on standard sequencing gels. Endo-SR activity values (fmol/min) were determined by quantitation of the radioactivity present in specific nuclease cleavage products and intact substrate (negative control) excised from the dried gel (Lyon et al., 1996). Nuclease assays used to characterize the activity parameters of murine and bovine Endo-SR were performed essentially as previously described (Lyon et al., 1996)."}, "murine Endo-SR": {"molecular_target": "T3, murine Endo-SR (Mus musculus, UniProt P56542)", "T3 construct": "Nuclease assays were performed with purified bovine nuclease (Fraction V) and partially purified murine Endo-SR (Lyon et al., 1996); endogenous in cells", "T3 sequence (P56542 20-353)": "T1 sequence (P56542 20-353)", "experiment": "Effect of M^2+ cofactors and EDTA on murine Endo-SR activity (Example 2, FIG. 2B)", "type": "biochemical", "settings": "≦50 μM", "method": "as §1, §2"}, "switch recombination": {"tested_on": "switch recombination", "settings": "without demonstrably affecting cell proliferation or CH gene transcription; Loh et al., 1994a, 1995; cited from earlier work"}, "[1]": {"molecular_target": "the molecule itself", "experiment": "native size exclusion chromatography (~35 000) compared with SDS-PAGE (Mr ~32 000)"}}, "note": "Entries after “also recorded” stand apart in the source; their conditions may differ.", "data": [{"molecule": "[Mg+2]", "note": "[Mg^2+]", "values": [{"measurement": "effect on Endo-SR activity", "setting": "Endo-SR; 500 μM", "value": "significantly enhanced; also recorded: maximal activity"}, {"measurement": "effect on nuclease activity at low concentrations", "setting": "bovine Endo-SR", "value": "significant degree of enzyme inhibition"}, {"measurement": "effect on nuclease activity at low concentrations", "setting": "murine Endo-SR", "value": "significant degree of enzyme inhibition"}]}, {"molecule": "[Zn+2]", "note": "[Zn^2+]", "values": [{"measurement": "inhibition of Endo-SR activity", "setting": "Endo-SR; 50 μM", "value": "~50", "unit": "%"}, {"measurement": "inhibition of Endo-SR activity", "setting": "Endo-SR; 500 μM", "value": "~95", "unit": "%"}, {"measurement": "effect on nuclease activity at low concentrations", "setting": "bovine Endo-SR", "value": "significant degree of enzyme inhibition"}, {"measurement": "effect on nuclease activity at low concentrations", "setting": "murine Endo-SR", "value": "significant degree of enzyme inhibition"}]}, {"molecule": "O=C(O)CN(CCN(CC(=O)O)CC(=O)O)CC(=O)O", "note": "[EDTA]", "values": [{"measurement": "inhibition of Endo-SR activity", "setting": "Endo-SR; 5 mM", "value": "~40", "unit": "%"}, {"measurement": "effect on Endo-SR activity", "setting": "Endo-SR; 50 mM", "value": "completely inhibited; also recorded: complete inhibition"}, {"measurement": "effect on nuclease activity at low concentrations", "setting": "bovine Endo-SR", "value": "relatively resistant"}, {"measurement": "effect on nuclease activity at low concentrations", "setting": "murine Endo-SR", "value": "relatively resistant"}]}, {"molecule": "CCCc1c2oc(C(=O)O)cc(=O)c2cc2c(=O)cc(C(=O)O)n(CC)c12", "note": "[nedocromil sodium]", "values": [{"measurement": "effect on switch rearrangement", "setting": "switch recombination", "value": "dramatically repress switch rearrangement"}]}, {"molecule": "O=C([O-])c1cc(=O)c2c(OCC(O)COc3cccc4oc(C(=O)[O-])cc(=O)c34)cccc2o1.[Na+].[Na+]", "note": "[disodium cromoglycolate]", "values": [{"measurement": "effect on switch rearrangement", "setting": "switch recombination", "value": "dramatically repress switch rearrangement"}]}, {"molecule": "[Ca+2]", "note": "[Ca^2+]", "values": [{"measurement": "effect on Endo-SR activity", "setting": "Endo-SR; 500 μM", "value": "significantly enhanced"}]}, {"molecule": "B1", "values": [{"measurement": "binding result", "setting": "[1]", "value": "no binding"}]}]}
